Assay results reported in patent US11564904B2, “Gingko diterpene lactone composition” (Jiangsu Kanion Pharmaceutical Co., Ltd., priority 2017, dated 2023).

What was measured:
[1] = tested on: PAF-induced platelet aggregation; test: In vitro PAF-induced platelet aggregation rate of rabbits; format: cell-based, New Zealand white rabbits; conditions: compositions 9.26 μg/ml, nimodipine 0.05 μg/ml
Method: (§1) Rabbits were treated with procaine by local anesthesia, carotid arterial cannulation and bleeding. […] Incubation was performed for 5 min, then 10 μl of 146 μg/ml ADP and 10 μl of 10 μg/ml PAF were added in turn. […] Aggregation inhibition rate (%)=(maximum aggregation rate of blank control group−maximum aggregation rate of administration group)/maximum aggregation rate of blank control group×100%. The experimental data was expressed as x±s and analyzed by SPSS 17.0 statistical software. The comparison of means between multiple groups was performed by one-way analysis of variance. The comparison of sample means between two groups was performed by q test. P<0.05 was considered statistically significant.

[2] = tested on: right middle cerebral artery occlusion (MCAO) model; test: Focal cerebral ischemia-reperfusion injury (MCAO) model in rats; format: in vivo, SD rats; conditions: nimodipine 10.8 mg/kg, x ± s, n = 10
[3] = tested on: ADP-induced platelet aggregation; test: In vitro ADP-induced platelet aggregation rate of rabbits; format: cell-based, New Zealand white rabbits; conditions: compositions 9.26 μg/ml, nimodipine 0.05 μg/ml
Method: as §1

[4] = PAF 0.37 μg/ml, rabbit PRP, x ± s, n = 10
[5] = serum 24 hours after reperfusion, compositions 2.4 g·kg^−1 i.v.
[6] = ADP 5.4 μg/ml, rabbit PRP, x ± s, n = 10

Structure (SMILES): COCCOC(=O)C1=C(C)NC(C)=C(C(=O)OC(C)C)C1c1cccc([N+](=O)[O-])c1 (stereo not shown) [Nimodipine]
- inhibition at 0.05 µg/mL ([1]; Oryctolagus cuniculus, Platelet, PAF-induced, from maximum aggregation rate vs blank control): 27%
- Platelet aggregation rate 1 min [1, 4]: 27.13 ± 2.06
- Platelet aggregation rate 5 min [1, 4]: 42.18 ± 9.73
- Platelet aggregation rate Max [1, 4]: 48.08 ± 5.82
- Infarct size % ([2]; TTC staining 24 hours after re-perfusion, compositions 2.4 g·kg^−1 i.v.): 15.49 ± 5.94%
- BWC % ([2]; brain water content 24 hours after re-perfusion, compositions 2.4 g·kg^−1 i.v.): 68.36 ± 8.97%
- Neurologic score ([2]; rat MCAO, 3 h ischemia, after reperfusion, compositions 2.4 g·kg^−1 tail vein injection): 2.70 ± 0.95
- MDA/nmol* mg^−1 [2, 5]: 5.79 ± 1.75 nmol/mg
- SOD/U*mg^−1 [2, 5]: 26.94 ± 4.37 U*mg^−1
- Platelet aggregation rate 1 min [3, 6]: 26.46 ± 4.41
- Platelet aggregation rate 5 min [3, 6]: 38.33 ± 5.80
- Platelet aggregation rate Max [3, 6]: 41.85 ± 4.87
- inhibition at 0.05 µg/mL ([3]; Oryctolagus cuniculus, Platelet, ADP-induced, from maximum aggregation rate vs blank control): 16%
